BindingDB's records for doi:10.1016/S0960-894X(97)00219-9 (1997)

Target: T1, Cysteinyl leukotriene receptor 1 (Cavia porcellus, UniProt Q2NNR5)
T1 sequence (Q2NNR5 whole entry): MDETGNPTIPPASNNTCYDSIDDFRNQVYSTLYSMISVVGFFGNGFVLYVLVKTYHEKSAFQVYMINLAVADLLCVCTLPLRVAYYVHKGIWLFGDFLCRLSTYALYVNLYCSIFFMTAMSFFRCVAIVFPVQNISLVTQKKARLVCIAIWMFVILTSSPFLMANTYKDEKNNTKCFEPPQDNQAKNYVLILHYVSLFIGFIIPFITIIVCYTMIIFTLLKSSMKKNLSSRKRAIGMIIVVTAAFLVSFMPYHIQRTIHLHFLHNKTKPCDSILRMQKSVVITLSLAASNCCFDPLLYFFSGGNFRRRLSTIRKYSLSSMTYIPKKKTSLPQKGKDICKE
Assay: ChEBML_52039
Method: Dissociation constant for CysLT1 receptor was determined by the displacement of [3H]LTD4 from guinea pig lung membranes

Kd: 30.1 µM
SMILES: COc1cc(C(=O)NS(=O)(=O)c2ccccc2)ccc1Cn1ncc2ccc(NC(=O)OC3CCCC3)cc21
